Patent US11028058B2, “Heterocyclic compounds as adenosine antagonists” (NUVATION BIO INC., priority 2017, dated 2021)

Tests used:
[1] = molecular target: adenosine A2A receptor (Homo sapiens (Human), UniProt P29274); experiment: A2A adenosine receptor radioligand binding competition assay (filter plates)
Experimental: (§1) Binding of selected compounds to the adenosine A2A, A1, A2B, and A3 receptors was tested using a binding competition assay.
(§2) The general protocol for the radioligand binding competition assay was as follows. Competition binding was performed in duplicate in the wells of a 96 well plate (Master Block, Greiner, 786201) containing binding buffer (optimized for each receptor), membrane extracts (amount of protein/well optimized for each receptor), radiotracer (final concentration optimized for each receptor), and test compound. Nonspecific binding was determined by co-incubation with 200-fold excess of cold competitor. The samples were incubated in a final volume of 0.1 mL at 25° C. for 60 minutes and then filtered over filter plates. Filters were washed six times with 0.5 mL of ice-cold washing buffer (optimized for each receptor) and 50 μL of Microscint 20 (Packard) were added on each filter. The filter plates were sealed, incubated 15 min on an orbital shaker and scintillation counted with a TopCount for 30 sec/filter.
For the A2A adenosine receptor radioligand binding assay, the following modifications were made to the general protocol. GF/C filters (Perkin Elmer, 6005174), presoaked in 0.01% Brij for 2 h at room temperature were used. Filters were washed six times with 0.5 mL of ice-cold washing buffer (50 mM Tris pH 7.4) and 50 μL of Microscint 20 (Packard) was added in each well. The plates were then incubated for 15 min on an orbital shaker and then counted with a TopCount™ for 1 min/well. Another radioligand binding assay was used to evaluate the binding affinity for the adenosine A2A receptor assay was performed in duplicate in the wells of a 384 plate. Assay buffer contained DPBS 500 mM, MgCl2 0.1 mM, and 1% DMSO. Membrane-bead suspension was prepared by mixing 25.98 μL of human adenosine A2A membrane preparation (Perkin Elmer, RBHA2AM400UA) at 33.4 μg/mL, 28 μL of ADA at 20 μg/mL, and 932 μL of SPA beads at 3.33 mg/mL) and incubated the mixture for 20 min at room temperature. Mixed 20 μL of radiotracer (^3H-SCH 58261) at 15 nM to each well containing test articles at various concentrations and centrifuge the plate at 1000 rpm for 1 minute. Added 30 μL of the membraine-bead suspension to each well. Sealed the plates and incubated for 1 hr at room temperature with vigorous mixing on a plate mixer. Plates were read on Microbeta^2 (Perkin Elmer, 2450-0010).

[2] = molecular target: adenosine A2B receptor (HEK-293-A2B cell membranes) (Homo sapiens (Human), UniProt P29275); experiment: Adenosine A2B radioligand binding competition assay (3H-DPCPX)
Chain of adenosine A2B receptor (HEK-293-A2B cell membranes) (P29275 whole entry): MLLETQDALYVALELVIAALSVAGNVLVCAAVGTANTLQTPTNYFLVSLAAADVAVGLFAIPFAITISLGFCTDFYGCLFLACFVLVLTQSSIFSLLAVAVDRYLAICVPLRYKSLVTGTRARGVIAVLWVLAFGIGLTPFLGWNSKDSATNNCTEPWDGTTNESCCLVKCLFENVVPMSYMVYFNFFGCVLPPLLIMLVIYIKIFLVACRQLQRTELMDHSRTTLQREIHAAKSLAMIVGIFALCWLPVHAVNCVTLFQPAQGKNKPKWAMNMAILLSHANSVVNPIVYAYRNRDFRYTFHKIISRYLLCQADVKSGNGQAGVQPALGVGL
Experimental: as §1
as §2, with “sec/filter. […]” for “sec/filter.”

[3] = molecular target: adenosine A3 receptor (CHO-K1-A3 cell membranes) (Homo sapiens (Human), UniProt P0DMS8); experiment: Adenosine A3 radioligand binding competition assay (125I-AB-MECA)
Chain of adenosine A3 receptor (CHO-K1-A3 cell membranes) (P0DMS8 whole entry): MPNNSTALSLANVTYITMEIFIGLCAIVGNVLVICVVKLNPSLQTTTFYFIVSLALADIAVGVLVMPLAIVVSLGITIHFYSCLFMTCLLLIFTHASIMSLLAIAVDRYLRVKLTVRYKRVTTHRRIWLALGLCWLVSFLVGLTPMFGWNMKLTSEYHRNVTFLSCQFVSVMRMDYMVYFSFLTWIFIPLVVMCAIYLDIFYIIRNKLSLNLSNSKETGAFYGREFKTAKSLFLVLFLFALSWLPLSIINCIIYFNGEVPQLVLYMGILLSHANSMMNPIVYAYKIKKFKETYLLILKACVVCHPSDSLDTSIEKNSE
Experimental: as §1, §2
For the adenosine A3 radioligand binding competition assay, the following reagents were used:
CHO-K1-A3 cell membranes, 1.5 μg/well; a binding buffer comprising HEPES 25 mM pH 7.4, MgCl2 5 mM, CaCl2 1 mM, 0.5% BSA; a wash buffer comprising HEPES 25 mM pH 7.4, MgCl2 5 mM, CaCl2 1 mM; a Unifilter GF/C—treated for 2 h with 0.5% BS; and 0.4 nM of ^125I-AB-MECA as the tracer.

[4] = molecular target: adenosine A1 receptor (CHO-K1-A1 cell membranes) (Homo sapiens (Human), UniProt P30542); experiment: Adenosine A1 radioligand binding competition assay (3H-DPCPX)
Chain of adenosine A1 receptor (CHO-K1-A1 cell membranes) (P30542 whole entry): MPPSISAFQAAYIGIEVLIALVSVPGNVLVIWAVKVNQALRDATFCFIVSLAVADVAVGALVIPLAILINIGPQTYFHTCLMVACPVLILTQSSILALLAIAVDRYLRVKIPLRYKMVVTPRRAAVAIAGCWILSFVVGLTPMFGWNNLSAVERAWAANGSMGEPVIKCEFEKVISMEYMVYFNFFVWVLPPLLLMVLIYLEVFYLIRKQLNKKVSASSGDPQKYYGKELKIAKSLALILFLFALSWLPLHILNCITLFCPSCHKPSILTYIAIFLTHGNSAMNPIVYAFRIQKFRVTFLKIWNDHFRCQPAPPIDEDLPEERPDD
Experimental: as §1
as §2, with “sec/filter. […]” for “sec/filter.”

[5] = molecular target: HEK-293 cells expressing human recombinant adenosine A2A receptor (Homo sapiens (Human), UniProt P29274); experiment: cAMP assay, Assay 1 (HTRF kit); type: cell-based; conditions: for inhibition at 0.1 µM: HEK293, 100 nM, read-out: A2a cAMP (% inh @ 100 nM)
Chain of HEK-293 cells expressing human recombinant adenosine A2A receptor (P29274 whole entry): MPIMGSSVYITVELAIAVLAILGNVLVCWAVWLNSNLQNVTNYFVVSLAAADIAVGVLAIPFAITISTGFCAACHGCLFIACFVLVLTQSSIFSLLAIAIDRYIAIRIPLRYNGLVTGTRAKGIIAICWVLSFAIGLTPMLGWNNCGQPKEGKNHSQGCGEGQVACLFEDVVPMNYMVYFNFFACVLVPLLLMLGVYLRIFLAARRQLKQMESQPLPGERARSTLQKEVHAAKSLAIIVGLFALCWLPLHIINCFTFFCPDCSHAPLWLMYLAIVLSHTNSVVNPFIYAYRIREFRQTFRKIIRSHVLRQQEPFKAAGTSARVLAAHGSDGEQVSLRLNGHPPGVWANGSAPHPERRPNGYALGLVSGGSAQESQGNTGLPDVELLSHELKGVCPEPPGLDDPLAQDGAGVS
Experimental: The functional activity of compounds was tested using one of the two assays to detect the present of cAMP. Activation of G-protein coupled receptors (such as A2A) results in activation of adenylcyclase which converts ATP into cAMP which is used as a downstream signaling molecule. Therefore, molecules which act as GPCR (or specifically A2A receptor) antagonists cause a decrease in intracellular cAMP concentration.
Both assays used HEK-293 cells expressing human recombinant adenosine A2A receptor were grown prior to the test in media without antibiotic.
12 μL of cells were mixed with 6 μL of the test compound at increasing concentrations and then incubated for 10 min. Thereafter 6 μL of the reference agonist was added at a final concentration corresponding to the historical EC80. The plates were then incubated for 30 min at room temperature. After addition of the lysis buffer and 1 hour incubation, cAMP concentrations were estimated, according to the manufacturer specification, with the HTRF® kit.

[6] = molecular target: recombinant human A2A receptor (Homo sapiens (Human), UniProt P29274); experiment: GTPγ35S scintillation proximity assay for A2A receptor; type: biochemical; conditions: read-out: A2A γGTP assay (% Inh Avg) @ 100 nM
Chain of recombinant human A2A receptor (P29274 whole entry): as above
Experimental: For antagonist testing, membranes extracts were prepared from HEK-293 cells expressing recombinant human A2A receptor, were mixed with GDP (volume:volume) and were incubated in assay buffer comprising 20 mM HEPES pH 7.4; 100 mM NaCl, 10 μg/mL saponin, 5 mM MgCl2 for at least 15 min on ice. In parallel, GTPγ[^35S] was mixed with the beads (volume:volume) just before starting the reaction. The following reagents were successively added in the wells of an Optiplate (Perkin Elmer): 25 μL of test compound or reference ligand, 25 μL of the membranes: GDP mix, 25 μL of reference agonist at historical EC80 and 25 μL of GTPγ[^35S] (PerkinElmer NEG030X), diluted in assay buffer to give 0.1 nM. The plate was incubated at room temperature for 1 hour. Then, 20 μL of IGEPAL was added for 30 minutes at room temperature. Following this incubation, 20 μL of beads (PVT-anti rabbit (PerkinElmer, RPNQ0016)), diluted in assay buffer at 50 mg/mL (0.5 mg/10 μL) and 20 μL of an Anti-GαS/olf antibody were added for a final incubation of 3 hours at room temperature. Then, the plates were centrifuged for 10 min at 2000 rpm, incubated at room temperature for 1 hour and counted for 1 min/well with a PerkinElmer TopCount reader.

Chain of adenosine A2A receptor (P29274 whole entry): as above

In the case of `Nc1cnc(-c2ccc(O)c(Cl)c2)c(-c2ccccc2)n1` [Compound 1.1, 4-(5-amino-3-phenylpyrazin-2-yl)-2-chlorophenol], the “A2A radioligand binding competition assay % residual binding @ 100 nM” value [1] is reported as 30%, the “A2A radioligand binding competition assay % residual binding @ 1000 nM” value [1] is reported as 12% and the IC50 ([1]; Table B1-1) is reported as 0.057 µM. For the same compound, the “Radioligand binding competition assay % residual binding @ 300 nM (A2B)” value [2] was −9%, the “Radioligand binding competition assay % residual binding @ 300 nM (A3)” value [3] was 96% and the “Radioligand binding competition assay % residual binding @ 300 nM (A1)” value [4] was −3%. For the same compound, the IC50 [5] was 0.006 µM, the inhibition at 0.1 µM [5] was 97% and the inhibition at 0.1 µM [6] was 82%.

With `CC(=O)Nc1cnc(-c2ccc(O)c(Cl)c2)c(-c2ccccc2)n1` [Compound 1.3, N-(5-(3-chloro-4-hydroxyphenyl)-6-phenylpyrazin-2-yl)acetamide] the “A2A radioligand binding competition assay % residual binding @ 100 nM” value [1] was “ND/ND/ND/57%” and the inhibition at 0.1 µM [5] was 100%.

For `Nc1cnc(-c2ccc3ncccc3c2)c(-n2cccn2)n1` [Compound No. 1.22, 6-(1H-pyrazol-1-yl)-5-(quinolin-6-yl)pyrazin-2-amine], the “A2A radioligand binding competition assay % residual binding @ 3000 nM” value [1] was 39/ND/ND/ND % and the inhibition at 0.1 µM [5] was 24%.

In the case of `Nc1nc(-c2ccccc2)c(-c2ccc3ncccc3c2)nc1Br` [Compound No. 1.14, 3-bromo-6-phenyl-5-(quinolin-6-yl)pyrazin-2-amine], the “A2A radioligand binding competition assay % residual binding @ 100 nM” value [1] is reported as 76%, the “A2A radioligand binding competition assay % residual binding @ 300 nM” value [1] is reported as 48% and the “A2A radioligand binding competition assay % residual binding @ 1000 nM” value [1] is reported as 29%. For the same compound, the “A2A radioligand binding competition assay % residual binding @ 3000 nM” value [1] was 12% and the inhibition at 0.1 µM [5] was 100%.

With `Cc1ccc(-c2nc(N)cnc2-c2cc(Cl)c3ncccc3c2)o1` [Compound No. 1.21, 5-(8-chloroquinolin-6-yl)-6-(5-methylfuran-2-yl)pyrazin-2-amine] the “A2A radioligand binding competition assay % residual binding @ 3000 nM” value [1] was 5/ND/ND/ND % and the inhibition at 0.1 µM [5] was 100%.

For `Nc1cnc(-c2ccc3ncccc3c2)c(-c2ccc(F)cc2)n1` [Compound No. 1.15, 6-(4-fluorophenyl)-5-(quinolin-6-yl)pyrazin-2-amine], the “A2A radioligand binding competition assay % residual binding @ 3000 nM” value [1] was 104/ND/ND/ND % and the inhibition at 0.1 µM [5] was 0%.

For `Nc1cnc(-c2ccc3[nH]cnc3c2)c(-c2ccccc2)n1` [Compound No. 1.10, 5-(1H-benzo[d]imidazol-6-yl)-6-phenylpyrazin-2-amine], the “A2A radioligand binding competition assay % residual binding @ 100 nM” value [1] was 77%, the “A2A radioligand binding competition assay % residual binding @ 300 nM” value [1] was 70% and the “A2A radioligand binding competition assay % residual binding @ 1000 nM” value [1] was 64%. The “A2A radioligand binding competition assay % residual binding @ 3000 nM” value [1] was 39% and the inhibition at 0.1 µM [5] was 100%.

In the case of `Cc1ccc(-c2nc(N)cnc2-c2ccc3ncccc3c2)o1` [Compound No. 1.20, 6-(5-methylfuran-2-yl)-5-(quinolin-6-yl)pyrazin-2-amine], the “A2A radioligand binding competition assay % residual binding @ 3000 nM” value [1] is reported as 3/ND/ND/ND % and the inhibition at 0.1 µM [5] is reported as 81%.

With `N#Cc1cc(-c2ncc(N)nc2-c2ccccc2)ccc1O` [Compound No. 1.11, 5-(5-amino-3-phenylpyrazin-2-yl)-2-hydroxybenzonitrile] the “A2A radioligand binding competition assay % residual binding @ 300 nM” value [1] was “ND/ND/126/ND %” and the inhibition at 0.1 µM [5] was 100%.
